# Data as given in patent US10765687B2, “Methods and compounds to inhibit enveloped virus release” (Northwestern University, priority 2012, dated 2020).
# Key:
# [1] = system: ASLV virus like particles (VLPs); test: ASLV VLP release from 293 cells, Western blot with anti-ASLV Gag antibody; format: cell-based; details: FIG. 6A, compared with untreated cells
# Procedure: 293/E cells were cultured in DMEM supplemented with 10% fetal bovine serum, penicillin (1,000 units/ml), and streptomycin (1,000 μg/ml) to 50% confluence at 37° C. Expression of plasmids from p2036 was high in 293/E cells because these cells stably express the EBNA1 protein of EBV and the p2036 constructs contain the EBV FR plasmid maintenance element that EBNA 1 binds. Therefore 293/E cells were used when proteins expressed from p2036 were to be detected by western analysis. In all experiments, 24-well plates of 293/E cells were transfected with 0.5 μg of p2036-ASLV Gag with the X-treme Gene9 transfection reagent (Roche Diagnostics, Alameda, Calif., USA) according to the manufacturer's instructions. After 24 h after DNA transfection, the cells were washed with 1×DPS that contained CaCl2 (0.1 mM) and MgCl2 (1 mM) [Gibco #14040-133], and 1 ml of cell culture medium (10% FBS, 1% Penicillin/Streptomycin) containing CaCl2 (0.5 mM) and MgCl2 (5 mM) was added. […]
# For the budding assay, both media and cell lysate fractions were collected. […] After blocking of the membrane with wash buffer (10 mM Tris-HCl, pH 8.0, 150 mM NaCl, and 0.1% Tween 20) containing 5% nonfat dry milk, ASLV Gag proteins were detected with an AMV MA (p19) directed monoclonal antibody (mAb) and an anti-mouse IgG-HRP secondary antibody for ECL (Denville Scientific; Metuchen, N.J.).
# [2] = system: HIV-1; test: Cell-based inhibition assay in transfected COS-1 cells, ELISA p24 capture assay of tissue culture media; details: K21 100 μM, N20 20 μM, 24-hr treatment
# Procedure: COS-1 cells were seeded on twelve-well plates and grown in 1 ml of DMEM with 10% fbs and 1% Penicillin/Streptomycin. The following day, well were confluency was ˜60% were selected for co-transfection with an NL4-3 derived construct (pdeltaEnv) and pIIIEnv for expression of HIV-1 virus-encoded proteins. Inhibitor treatment was done on two sets of transfected cells: one, at 5 hr post-transfection and the other, at 24 hours post-transfection. In each case, the tissue culture media was removed and replaced with treatment Nedd4 inhibitor (100 μM final concentration for K21 and 20 μM final concentration for N20) or DMSO control (1% final concentration) in DMEM with 10% FBS, 1% Penicillin/Streptomycin, 5 mM MgCl2, and 0.5 mM CaCl2. After a 24-hr treatment period, the tissue culture media was collected, cleared of debris by running through a 0.45 um syringe filter and analyzed for amount of virus particles by Elisa p24 capture assay.
# At 100 μM, K21 was inhibitory to virus particle release. […] This was true whether the inhibitor was added at 5 hrs post-transfection or at 24 hrs post transfection. At 20 μM, N20 was also exerted an inhibitory effect on virus particle release but it was different from that of K21.
# [3] = system: COS-1 cells; test: Cell growth based on cell lysate actin levels (Western); details: versus DMSO-treated
# Procedure: The levels of actin of cell lysates prepared from DMSO-treated, […]-treated and N20-treated cells were determined by SDS-PAGE followed by Western analysis where the immunoblot were probed with mouse anti-actin antibody.
# [4] = inhibitor added 5 hrs post-transfection
# [5] = inhibitor added 24 hrs post-transfection
Compound,Release of ASLV VLPs from cells [1],"Amount of virus particle detected in tissue culture media [2, 4]","Amount of virus particle detected in tissue culture media [2, 5]",Intensity of actin bands of cell lysates [3]
"Cl.NC(CO)C(=O)NNCc1ccc(O)c(O)c1O (racemic) [Benserazide Hydrochloride, (RS)-2-amino-3-hydroxy-N′-(2,3,4-trihydroxybenzyl) propanehydrazide hydrochloride]",budding defect,reduction in the amount of virus particle detected,reduction in the amount of virus particle detected,essentially comparable for all samples
"CN(C)[C@@H]1C(O)=C(C(N)=O)C(=O)[C@@]2(O)C(=O)C3=C(O)c4c(O)cccc4[C@@](C)(O)[C@H]3[C@H](O)[C@@H]12 [Oxytetracycline, (4S,4aR,5S,5aR,6S,12aS)-4-(dimethylamino)-3,5,6,10,11,12a-hexahydroxy-6-methyl-1,12-dioxo-1,4,4a,5,5a,6,12,12a-octahydrotetracene-2-carboxamide]",budding defect,reduction in the amount of virus particle detected,reduction was not seen,essentially comparable for all samples
